Data reported in ChEMBL document CHEMBL3227990, “Aminotetralins as narcotic antagonists. Synthesis and opiate-related activity of 1-phenyl-2-aminotetralin derivatives” (J Med Chem, 1979).

Columns and labels:
Mus musculus [1] = species: Mus musculus; assay: Analgesic activity in mouse by hot plate test; assay type: functional
Mus musculus [2] = species: Mus musculus; assay: Toxicity in mouse assessed as convulsant activity; assay type: organism-based; conditions: in vivo
Mus musculus [3] = species: Mus musculus; assay: Inhibition of morphine-induced analgesia in mouse assessed as dose required for 50% antagonism of analgesia by tail flick test; assay type: functional

Row | Compound | ED50 (Mus musculus [1]) | Activity (Mus musculus [2]) | AD50 (Mus musculus [3])
1 | CN1CC[C@]23c4c5ccc(O)c4O[C@H]2[C@@H](O)C=C[C@H]3[C@H]1C5 [MORPHINE] | 1.1 mg/kg |  | 
2 | CN(CC1CC1)[C@@H]1CCc2ccccc2[C@@]1(O)c1ccccc1.Cl |  | Toxic | >=30 mg kg-1
3 | CCC(=O)O[C@@]1(c2ccccc2)c2ccccc2CC[C@H]1N(C)CC1CC1.Cl | 17.8 mg/kg |  | >=100 mg kg-1
4 | CO[C@@]1(c2ccccc2)c2ccccc2CC[C@H]1N(C)CC1CC1.Cl | ≥ 50 mg/kg |  | 33.5 mg/kg
